Assay results taken from patent publication US20260209208A1, “PHENYL-PYRAZOLE CARBOXAMIDE COMPOUNDS” (Acrivon Therapeutics, Inc., priority 2022, published 2026).

Key:
[1] = molecular target: T1, recombinant human PMYT-1 (Myt1 kinase) (Homo sapiens, UniProt Q99640); test: LanthaScreen Europium (Eu) Kinase Binding Assay for Myt1 kinase; conditions: TR-FRET tracer 178 displacement, GST-tagged full length PMYT-1, 60 min, room temperature; mean IC50; read-out: LANTHA Kinase Binding for PMyt1
T1 construct: full length PMYT-1 was expressed by baculovirus in insect cells using a N-terminal GST tag; purchased Invitrogen A30984; host or cells: insect cells (baculovirus)
T1 sequence (Q99640 1-499): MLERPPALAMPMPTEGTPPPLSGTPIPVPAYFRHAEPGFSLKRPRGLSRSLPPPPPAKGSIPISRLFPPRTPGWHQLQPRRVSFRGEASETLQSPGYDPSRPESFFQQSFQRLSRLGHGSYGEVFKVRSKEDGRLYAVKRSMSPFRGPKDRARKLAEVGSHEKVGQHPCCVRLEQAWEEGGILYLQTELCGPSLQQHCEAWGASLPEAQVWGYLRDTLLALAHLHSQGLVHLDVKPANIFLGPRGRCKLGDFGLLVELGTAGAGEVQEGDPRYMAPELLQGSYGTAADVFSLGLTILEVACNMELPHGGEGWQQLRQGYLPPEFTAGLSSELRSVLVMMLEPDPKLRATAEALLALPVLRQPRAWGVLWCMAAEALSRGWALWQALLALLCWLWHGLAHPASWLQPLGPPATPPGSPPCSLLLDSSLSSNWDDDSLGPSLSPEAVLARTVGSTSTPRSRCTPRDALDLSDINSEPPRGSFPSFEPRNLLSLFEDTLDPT
From the text: We used a LanthaScreen Europium (Eu) Kinase Binding Assay to determine the binding of provided compounds to Myt1 kinase. The assay utilizes an Alexa Fluor 647-labeled ATP competitive kinase tracer that binds to the ATP binding site of a GST-tagged Myt1 kinase, while a europium (Eu) labeled antibody binds to the GST tag. The proximity of fluorescently labeled kinase tracer and europium (Eu) donor fluorophore antibody leads to fluorescence resonance energy transfer (FRET) to the fluorescence label (acceptor) upon excitation of the Eu (donor). Displacement of tracer from the ATP-binding site by a test compound disturbs the proximity between both labels thus lowering the FRET.
This time resolved-FRET binding assay was performed in white 384-well low volume plates (Greiner, cat #784075), at room temperature in kinase buffer A (KBA; Invitrogen cat # PV3189), consisting of 50 mM HEPES-NaOH (pH 7.5), 0.01% Brij-35, 10 mM MgCl2, and 1 mM EGTA. 5 μl of compound (diluted in reaction buffer, to 1% DMSO) were added to various wells in the plate, followed by 5 μl each of recombinant human PMYT-1 (full length PMYT-1 was expressed by baculovirus in insect cells using a N-terminal GST tag (MW: 80.8 kDa) (Invitrogen cat #A30984) and LanthaScreen Eu-anti-GST antibody (Invitrogen, cat #PV5594). After this, 5 μl of kinase tracer 178 (Invitrogen, cat #PV5593) was added to the plate and the plate was incubated for 60 minutes at room temperature. The final assay conditions in each well were: 3 nM tracer 178, 2.5 nM PMYT-1 and 1 nM Eu-labeled antibody in total assay volume of 15 μl. An Envision 2104 (Perkin-Elmer) Plate Reader with the following time-resolve fluorescence setting was used for performing LanthaScreen kinase binding assay. • Excitation 320 nm (30 nm bandpass) • Kinase Tracer Emission 665 nm (10 nm bandpass) • LanthaScreen Eu-anti-Tag Antibody Emission 615 nm (10 nm bandpass) • Dichroic Mirror Instrument dependent • Delay Time 100 μs • Integration Time 200 μs
To calculate the emission ratio, the acceptor/tracer emission ([…]) was divided by the antibody/donor emission ([…]) and the average of duplicate measurement was used for calculations. Data plotting, analysis of binding, and curve fitting was done using Excel add-in XLfit version 5.5.0.5 (IDBS, Guildford, United Kingdom).

[2] = molecular target: T2, Myt1 Kinase (Homo sapiens, UniProt Q99640); test: AlphaLISA SureFire Ultra Human Phospho-CDK1 (Thr14) target engagement assay in DAOY cells; type: cell-based; conditions: 4 h incubation, Cdk1 phosphorylated on threonine 14, read-out: TE Myt1 Kinase (AlphaLISA)
T2 construct: endogenous in cells; host or cells: DAOY medulloblastoma cells (ATCC)
T2 sequence (Q99640 1-499): T1 sequence (Q99640 1-499)
Method: The following cellular assay was used to determine the extent to which the compounds disclosed herein inhibit phosphorylation of CDK1 at Thr 14.
(§1) DAOY medulloblastoma cell line (ATCC) was cultured in Minimum Essential Medium Eagle supplemented with 10% fetal calf serum (Sigma), 1% Penicillin-Streptomycin and 10 mM HEPES buffer (HyClone). Cell cultures were kept in a humidified incubator at 37° C. and 5% CO2. Cells were routinely tested for Mycoplasma contamination.
For target engagement assessment, quantification of Cdk1 phosphorylated on threonine 14 was detected using the AlphaLISA® SureFire® Ultra™ Human Phospho-CDK1 (Thr14) assay (Perkin Elmer). DAOY cells were seeded into tissue culture 96-well plates (VWR) to a density of 10,000 cells per well. Twenty-four hours post-seeding cells were incubated for 4 h with test compounds at concentrations ranging from 7 to 5000 nM. Cells were washed with PBS and lysed in 50 μl AlphaLISA® lysis buffer before freezing at −80° C. Ten μl of the lysate was transferred to 384 well plates and incubated with AlphaLISA® donor and acceptor beads according to the manufacturer's instructions. Dose response curves and EC50 values were calculated and visualized using GraphPad Prism version 9.

[3] = tested on: DAOY cells; test: Cell Titer Glo viability assay; type: cell-based; conditions: Homo sapiens, 144 hours, Cell Titer Glo 2.0
Method: as §1
DAOY cells were seeded at a density of 250 cells per well in tissue culture 384 well plates (Corning Costar). After overnight incubation, cells were incubated with test compounds at concentrations ranging from 0.17 to 10,000 nM. Viability compared to untreated control was assessed at 144 hours using Cell Titer Glo® 2.0 Viability Assay (Promega).

| SMILES | IC50 [1] [nM] | EC50 [2] [nM] | EC50 [3] [nM] |
| --- | --- | --- | --- |
| Cc1ccc(O)c(C)c1-n1nc(-c2ncco2)c(C(N)=O)c1N [Compound 123] | ≤ 10 | ≤ 250 | 500 to 1000 |
| Cc1ccc(O)c(C)c1-n1nc(-c2cc3ccccc3o2)c(C(N)=O)c1N [Compound 72, 5-amino-3-(1-benzofuran-2-yl)-1-(3-hydroxy-2,6-xylyl)-4-pyrazolecarboxamide] | ≤ 10 | ≤ 250 | ≤ 500 |
| Cc1ccc(O)c(C)c1-n1nc(-c2cc(Br)co2)c(C(N)=O)c1N [Compound 79, 5-amino-3-(4-bromo-2-furyl)-1-(3-hydroxy-2,6-xylyl)-4-pyrazolecarboxamide] | ≤ 10 | ≤ 250 | ≤ 500 |
| Cc1ccc(O)c(C)c1-n1nc(-c2ccc(-c3ccccc3)o2)c(C(N)=O)c1N [Compound 87, 5-Amino-1-(3-hydroxy-2,6-xylyl)-3-(5-phenyl-2-furyl)-4-pyrazolecarboxamide] | ≤ 10 | ≤ 250 | ≤ 500 |
| Cc1ccc(O)c(C)c1-n1nc(-c2ccc(-c3ccncc3)o2)c(C(N)=O)c1N [Compound 99, 5-amino-1-(3-hydroxy-2,6-xylyl)-3-[5-(4-pyridyl)-2-furyl]-4-pyrazolecarboxamide] | ≤ 10 | ≤ 250 | > 1000 |
| Cc1coc(-c2nn(-c3c(C)ccc(O)c3C)c(N)c2C(N)=O)c1 [Compound 90, 5-amino-1-(3-hydroxy-2,6-xylyl)-3-(4-methyl-2-furyl)-4-pyrazolecarboxamide] | ≤ 10 | ≤ 250 | ≤ 500 |
| Cc1ccc(O)c(C)c1-n1nc(-c2ccc(Cl)o2)c(C(N)=O)c1N [Compound 80, 5-amino-3-(5-chloro-2-furyl)-1-(3-hydroxy-2,6-xylyl)-4-pyrazolecarboxamide] | ≤ 10 | ≤ 250 | > 1000 |
| Cc1ccc(O)c(C)c1-n1nc(-c2cc(C3CC3)co2)c(C(N)=O)c1N [Compound 111, 5-amino-3-(4-cyclopropyl-2-furyl)-1-(3-hydroxy-2,6-xylyl)-4-pyrazolecarboxamide] | 10 to 100 | ≤ 250 | 500 to 1000 |
| Cc1ccc(O)c(C)c1-n1nc(-c2ccco2)c(C(N)=O)c1N (single isomer, unassigned) [Compound 104, 5-amino-3-(furan-2-yl)-1-(3-hydroxy-2,6-dimethylphenyl)-1H-pyrazole-4-carboxamide] | ≤ 10 | ≤ 250 | 500 to 1000 |
| Cc1ccc(O)c(C)c1-n1nc(-c2cc(-c3ccncc3)co2)c(C(N)=O)c1N [Compound 95, 5-amino-1-(3-hydroxy-2,6-xylyl)-3-[4-(4-pyridyl)-2-furyl]-4-pyrazolecarboxamide] | ≤ 10 | ≤ 250 | ≤ 500 |
| Cc1ccc(O)c(C)c1-n1nc(-c2ccc(-c3ccccn3)o2)c(C(N)=O)c1N [Compound 100, 5-amino-1-(3-hydroxy-2,6-xylyl)-3-[5-(2-pyridyl)-2-furyl]-4-pyrazolecarboxamide] | – | 250 to 500 | > 1000 |
| Cc1ccc2[nH]ncc2c1-n1nc(-c2cc3ccccc3o2)c(C(N)=O)c1N [Compound 77, 5-amino-3-(1-benzofuran-2-yl)-1-(5-methyl-1H-indazol-4-yl)-4-pyrazolecarboxamide] | 10 to 100 | > 1000 | – |
| Cc1cc(-c2nn(-c3c(C)ccc(O)c3C)c(N)c2C(N)=O)oc1C [Compound 89, 5-amino-3-(4,5-dimethyl-2-furyl)-1-(3-hydroxy-2,6-xylyl)-4-pyrazolecarboxamide] | ≤ 10 | 250 to 500 | – |
| Cc1ccc(O)c(C)c1-n1nc(-c2ncc[nH]2)c(C(N)=O)c1N [Compound 125] | ≤ 10 | 500 to 1000 | – |
| Cc1ccc2[nH]ncc2c1-n1nc(-c2ccc(Br)o2)c(C(N)=O)c1N [Compound 85, 5-amino-3-(5-bromo-2-furyl)-1-(5-methyl-1H-indazol-4-yl)-4-pyrazolecarboxamide] | 10 to 100 | > 1000 | – |
